{
  "source": "PubChem BioAssay AID2060499",
  "about": "(Molecular Pharmacology Branch, DTP, NCI, 2025)",
  "test_system": "777334-354-R2-J4-PDC tumor spheroids with HUVEC/MSC, viability",
  "experiment": "Anticancer human tumor 777334-354-R2-J4-PDC patient-derived pancreatic adenocarcinoma cell line growth inhibition [GQUAD]",
  "conditions": "for IC50: curve of first compound; for viability, T/C: stronger effect = lower value",
  "procedure,_shortened": "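Multi-cell-type spheroids of tumor cells with HUVEC and mesenchymal stem cells, treated with drug combinations. Concentrations descend in half-log steps from near clinical Cmax, or from 10 microM where Cmax is unknown; viability read-out.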",
  "key": {"[1]": {"conditions": "second compound 0.0316 µM, first compound 0.0316 µM"}, "[2]": {"conditions": "second compound 0.0316 µM, first compound 0.1 µM"}, "[3]": {"conditions": "second compound 0.0316 µM, first compound 0.316 µM"}, "[4]": {"conditions": "second compound 0.0316 µM, first compound 1 µM"}, "[5]": {"conditions": "second compound 0.0316 µM, first compound 3.16 µM"}, "[6]": {"conditions": "second compound 0.0316 µM, first compound 10 µM"}, "[7]": {"conditions": "second compound 0.1 µM, first compound 0.0316 µM"}, "[8]": {"conditions": "second compound 0.1 µM, first compound 0.1 µM"}, "[9]": {"conditions": "second compound 0.1 µM, first compound 0.316 µM"}, "[10]": {"conditions": "second compound 0.1 µM, first compound 1 µM"}, "[11]": {"conditions": "second compound 0.1 µM, first compound 3.16 µM"}, "[12]": {"conditions": "second compound 0.1 µM, first compound 10 µM"}, "[13]": {"conditions": "second compound 0.316 µM, first compound 0.0316 µM"}, "[14]": {"conditions": "second compound 0.316 µM, first compound 0.1 µM"}, "[15]": {"conditions": "second compound 0.316 µM, first compound 0.316 µM"}, "[16]": {"conditions": "second compound 0.316 µM, first compound 1 µM"}, "[17]": {"conditions": "second compound 0.316 µM, first compound 3.16 µM"}, "[18]": {"conditions": "second compound 0.316 µM, first compound 10 µM"}, "[19]": {"conditions": "second compound 1 µM, first compound 0.0316 µM"}, "[20]": {"conditions": "second compound 1 µM, first compound 0.1 µM"}, "[21]": {"conditions": "second compound 1 µM, first compound 0.316 µM"}, "[22]": {"conditions": "second compound 1 µM, first compound 1 µM"}, "[23]": {"conditions": "second compound 1 µM, first compound 3.16 µM"}, "[24]": {"conditions": "second compound 1 µM, first compound 10 µM"}, "[25]": {"conditions": "second compound 3.16 µM, first compound 0.0316 µM"}, "[26]": {"conditions": "second compound 3.16 µM, first compound 0.1 µM"}, "[27]": {"conditions": "second compound 3.16 µM, first compound 0.316 µM"}, "[28]": {"conditions": "second compound 3.16 µM, first compound 1 µM"}, "[29]": {"conditions": "second compound 3.16 µM, first compound 3.16 µM"}, "[30]": {"conditions": "second compound 3.16 µM, first compound 10 µM"}, "[31]": {"conditions": "second compound 10 µM, first compound 0.0316 µM"}, "[32]": {"conditions": "second compound 10 µM, first compound 0.1 µM"}, "[33]": {"conditions": "second compound 10 µM, first compound 0.316 µM"}, "[34]": {"conditions": "second compound 10 µM, first compound 1 µM"}, "[35]": {"conditions": "second compound 10 µM, first compound 3.16 µM"}, "[36]": {"conditions": "second compound 10 µM, first compound 10 µM"}},
  "data": [
    {"compound": "CC1COCCN1c1cc(-c2ccnn2C)c2ccnc(-c3ccn[nH]3)c2n1", "note": "(centres undefined) + Cc1cnc(CNC(=O)c2c(=O)c3ccc(N4CCCN(C)CC4)nc3n3c2sc2ccccc23)cn1;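 further: spheroids exposed to compounds for 7 days before readout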", "values": [
      {"measurement": "IC50", "setting": "second compound 0.0316 µM", "value": 143, "unit": "nM"},
      {"measurement": "IC50", "setting": "second compound 0.1 µM", "value": 240, "unit": "nM"},
      {"measurement": "IC50", "setting": "second compound 0.316 µM", "value": 331, "unit": "nM"},
      {"measurement": "IC50", "setting": "second compound 1 µM", "value": "< 31.6", "unit": "nM"},
      {"measurement": "IC50", "setting": "second compound 3.16 µM", "value": "< 31.6", "unit": "nM"},
      {"measurement": "IC50", "setting": "second compound 10 µM", "value": "< 31.6", "unit": "nM"},
      {"measurement": "viability, T/C", "setting": "[1]", "value": 73.2, "unit": "%"},
      {"measurement": "viability, T/C", "setting": "[2]", "value": 50.8, "unit": "%"},
      {"measurement": "viability, T/C", "setting": "[3]", "value": 45.5, "unit": "%"},
      {"measurement": "viability, T/C", "setting": "[4]", "value": 41.7, "unit": "%"},
      {"measurement": "viability, T/C", "setting": "[5]", "value": 43.1, "unit": "%"},
      {"measurement": "viability, T/C", "setting": "[6]", "value": 34.5, "unit": "%"},
      {"measurement": "viability, T/C", "setting": "[7]", "value": 59.8, "unit": "%"},
      {"measurement": "viability, T/C", "setting": "[8]", "value": 51.3, "unit": "%"},
      {"measurement": "viability, T/C", "setting": "[9]", "value": 47.8, "unit": "%"},
      {"measurement": "viability, T/C", "setting": "[10]", "value": 41.9, "unit": "%"},
      {"measurement": "viability, T/C", "setting": "[11]", "value": 44.1, "unit": "%"},
      {"measurement": "viability, T/C", "setting": "[12]", "value": 28.7, "unit": "%"},
      {"measurement": "viability, T/C", "setting": "[13]", "value": 56, "unit": "%"},
      {"measurement": "viability, T/C", "setting": "[14]", "value": 59.3, "unit": "%"},
      {"measurement": "viability, T/C", "setting": "[15]", "value": 48.6, "unit": "%"},
      {"measurement": "viability, T/C", "setting": "[16]", "value": 41.8, "unit": "%"},
      {"measurement": "viability, T/C", "setting": "[17]", "value": 38.6, "unit": "%"},
      {"measurement": "viability, T/C", "setting": "[18]", "value": 26.9, "unit": "%"},
      {"measurement": "viability, T/C", "setting": "[19]", "value": 48.3, "unit": "%"},
      {"measurement": "viability, T/C", "setting": "[20]", "value": 44.1, "unit": "%"},
      {"measurement": "viability, T/C", "setting": "[21]", "value": 52.8, "unit": "%"},
      {"measurement": "viability, T/C", "setting": "[22]", "value": 41.8, "unit": "%"},
      {"measurement": "viability, T/C", "setting": "[23]", "value": 36.2, "unit": "%"},
      {"measurement": "viability, T/C", "setting": "[24]", "value": 27.5, "unit": "%"},
      {"measurement": "viability, T/C", "setting": "[25]", "value": 44.5, "unit": "%"},
      {"measurement": "viability, T/C", "setting": "[26]", "value": 41, "unit": "%"},
      {"measurement": "viability, T/C", "setting": "[27]", "value": 41.7, "unit": "%"},
      {"measurement": "viability, T/C", "setting": "[28]", "value": 41.3, "unit": "%"},
      {"measurement": "viability, T/C", "setting": "[29]", "value": 29.6, "unit": "%"},
      {"measurement": "viability, T/C", "setting": "[30]", "value": 20, "unit": "%"},
      {"measurement": "viability, T/C", "setting": "[31]", "value": 42.8, "unit": "%"},
      {"measurement": "viability, T/C", "setting": "[32]", "value": 39.8, "unit": "%"},
      {"measurement": "viability, T/C", "setting": "[33]", "value": 44.7, "unit": "%"},
      {"measurement": "viability, T/C", "setting": "[34]", "value": 36.9, "unit": "%"},
      {"measurement": "viability, T/C", "setting": "[35]", "value": 32.5, "unit": "%"},
      {"measurement": "viability, T/C", "setting": "[36]", "value": 21.2, "unit": "%"}
    ]},
    {"compound": "COc1ccc([C@@H](O)c2cc(-c3ncnc4cc(N5CCOCC5)ccc34)c(F)cc2Cl)nn1", "note": "+ CN(C)c1ccc(Nc2c3ccc(NC(=O)CCN4CCCC4)cc3nc3cc(NC(=O)CCN4CCCC4)ccc23)cc1", "values": [
      {"measurement": "IC50", "setting": "second compound 0.0316 µM", "value": 3580, "unit": "nM"},
      {"measurement": "IC50", "setting": "second compound 0.1 µM", "value": 3710, "unit": "nM"},
      {"measurement": "IC50", "setting": "second compound 0.316 µM", "value": 2970, "unit": "nM"},
      {"measurement": "IC50", "setting": "second compound 1 µM", "value": 2710, "unit": "nM"},
      {"measurement": "IC50", "setting": "second compound 3.16 µM", "value": 1860, "unit": "nM"},
      {"measurement": "IC50", "setting": "second compound 10 µM", "value": 1120, "unit": "nM"},
      {"measurement": "viability, T/C", "setting": "[1]", "value": 88.8, "unit": "%"},
      {"measurement": "viability, T/C", "setting": "[2]", "value": 88.9, "unit": "%"},
      {"measurement": "viability, T/C", "setting": "[3]", "value": 84.3, "unit": "%"},
      {"measurement": "viability, T/C", "setting": "[4]", "value": 72.4, "unit": "%"},
      {"measurement": "viability, T/C", "setting": "[5]", "value": 53.6, "unit": "%"},
      {"measurement": "viability, T/C", "setting": "[6]", "value": 23.9, "unit": "%"},
      {"measurement": "viability, T/C", "setting": "[7]", "value": 96.6, "unit": "%"},
      {"measurement": "viability, T/C", "setting": "[8]", "value": 81.3, "unit": "%"},
      {"measurement": "viability, T/C", "setting": "[9]", "value": 96.2, "unit": "%"},
      {"measurement": "viability, T/C", "setting": "[10]", "value": 68.8, "unit": "%"},
      {"measurement": "viability, T/C", "setting": "[11]", "value": 55.5, "unit": "%"},
      {"measurement": "viability, T/C", "setting": "[12]", "value": 26.9, "unit": "%"},
      {"measurement": "viability, T/C", "setting": "[13]", "value": 96.8, "unit": "%"},
      {"measurement": "viability, T/C", "setting": "[14]", "value": 83.2, "unit": "%"},
      {"measurement": "viability, T/C", "setting": "[15]", "value": 79.4, "unit": "%"},
      {"measurement": "viability, T/C", "setting": "[16]", "value": 68.7, "unit": "%"},
      {"measurement": "viability, T/C", "setting": "[17]", "value": 48.9, "unit": "%"},
      {"measurement": "viability, T/C", "setting": "[18]", "value": 24.5, "unit": "%"},
      {"measurement": "viability, T/C", "setting": "[19]", "value": 86.2, "unit": "%"},
      {"measurement": "viability, T/C", "setting": "[20]", "value": 86.4, "unit": "%"},
      {"measurement": "viability, T/C", "setting": "[21]", "value": 76.6, "unit": "%"},
      {"measurement": "viability, T/C", "setting": "[22]", "value": 73.1, "unit": "%"},
      {"measurement": "viability, T/C", "setting": "[23]", "value": 45.7, "unit": "%"},
      {"measurement": "viability, T/C", "setting": "[24]", "value": 23.1, "unit": "%"},
      {"measurement": "viability, T/C", "setting": "[25]", "value": 72.5, "unit": "%"},
      {"measurement": "viability, T/C", "setting": "[26]", "value": 81.2, "unit": "%"},
      {"measurement": "viability, T/C", "setting": "[27]", "value": 73.3, "unit": "%"},
      {"measurement": "viability, T/C", "setting": "[28]", "value": 57.8, "unit": "%"},
      {"measurement": "viability, T/C", "setting": "[29]", "value": 42.5, "unit": "%"},
      {"measurement": "viability, T/C", "setting": "[30]", "value": 20.6, "unit": "%"},
      {"measurement": "viability, T/C", "setting": "[31]", "value": 81.3, "unit": "%"},
      {"measurement": "viability, T/C", "setting": "[32]", "value": 71.8, "unit": "%"},
      {"measurement": "viability, T/C", "setting": "[33]", "value": 69.5, "unit": "%"},
      {"measurement": "viability, T/C", "setting": "[34]", "value": 51, "unit": "%"},
      {"measurement": "viability, T/C", "setting": "[35]", "value": 32.9, "unit": "%"},
      {"measurement": "viability, T/C", "setting": "[36]", "value": 17.4, "unit": "%"}
    ]}
  ]
}
